Reference: US11945790B2 (ImmunoMolecular Therapeutics, Inc., priority 2020, dated 2024)

Target: HLA-DQ2 (Homo sapiens, UniProt P01909+P01920)
Test: Inhibition of IL-2 secretion by TCR transductants stimulated by α-gliadin peptides presented by HLA-DQ2 expressing K562 cells (ELISA)
Type: cell-based
Settings: tested as trans racemate unless otherwise noted, lines naming several Examples = stereoisomer mixture of those Examples; for % Inh at 200 uM: inhibition of IL-2 secretion at 200 uM
Procedure: Three commercially available analogues of the DQ2 binding molecules of the invention were tested for their ability to inhibit stimulation of T cell receptor (TCR) transductants in the presence of HLA-DQ2 expressing cells presenting known α-gliadin epitopes.
Using a previously published in vitro assay (Ostrov D, et al. Methyldopa blocks MHC class II binding to disease specific antigens in autoimmune diabetes. J Clin Invest. 2018:128 (5)) the ability of these DQ2 binding analogues to inhibit interleukin-2 (IL-2) secretion by TCR transductants stimulated by α-gliadin peptides presented by HLA-DQ2 was determined. Individual TCR transductants (recognizing a I-gliadin or a II-gliadin) were cultured with a gliadin peptide plus the small molecule analogues in the presence of HLA-DQ2 expressing K562 cells serving as antigen presenting cells. TCR transductants cultured with no gliadin peptide served as the negative control, and incubation with an anti-CD3 antibody (eBioscience; clone 2C11) served as a positive control for the TCR transductant. Secreted IL-2 in the culture supernatant was measured using a highly sensitive enzyme-linked immunosorbent assay (ELISA). […] Assays for effects on cell viability and for specificity, assayed in the absence of gliadin peptide or in the presence of a stimulating anti-CD3 antibody, were performed. Unless otherwise noted, the stereochemistry shown below represents the relative configuration. Further, unless otherwise noted, compounds were tested as the trans racemate.

Chain of HLA-DQ2 (P01920 33-261 limits assumed, other chains not shown): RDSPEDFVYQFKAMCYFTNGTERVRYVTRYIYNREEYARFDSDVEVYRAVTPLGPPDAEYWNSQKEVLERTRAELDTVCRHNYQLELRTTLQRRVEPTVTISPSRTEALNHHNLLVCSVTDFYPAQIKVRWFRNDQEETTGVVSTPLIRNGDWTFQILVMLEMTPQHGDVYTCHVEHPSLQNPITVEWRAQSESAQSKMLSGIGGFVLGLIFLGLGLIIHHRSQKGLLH

Row | SMILES | % Inh at 200 uM | EC50 (inhibition of IL-2 secretion, dose-response) [µM]
1 | Cc1ccc(C)c(SCC(=O)N2CCN(C(=O)[C@@H]3C[C@H]3c3ccccc3)CC2)c1 (relative stereo) [Example 55, 2-((2,5-Dimethylphenyl)thio)-1-(4-(trans-2-phenylcyclo-propanecarbonyl)piperazin-1-yl)-ethanone] | B (B=50-74%) | 
2 | NC(=O)c1cccc(OCC(=O)N2CCN(C(=O)[C@@H]3C[C@H]3c3ccccc3)CC2)c1 [Example 91] | B (B=50-74%) | 
3 | O=C(CS(=O)(=O)C1CCCC1)N1CCN(C(=O)[C@@H]2CC2c2ccccc2)CC1 (stereo partly shown) [Example 102] | C (C=25-49%) | 
4 | O=C(CSC1CCCCCC1)N1CCN(C(=O)[C@@H]2C[C@H]2c2ccccc2)CC1 (relative stereo) [Example 69, 2-(Cycloheptylthio)-1-(4-(trans-2-phenylcyclopropane-1-carbonyl)piperazin-1-yl) ethan-1-one] | A (A=≥75%) | 
5 | O=C(CSc1cccc(O)c1)N1CCN(C(=O)[C@@H]2C[C@H]2c2ccccc2)CC1 [Example 87] | C (C=25-49%) | 
6 | O=C(COC1CCCC1)N1CCN(C(=O)[C@@H]2C[C@H]2c2ccccc2)CC1 [Example 64] | B (B=50-74%) | 
7 | COc1ccc([C@H]2C[C@@H]2C(=O)N2CCN(C(=O)CSC3CCCC3)CC2)cc1 [Example 28] | B (B=50-74%) | 
8 | CN(CC(=O)N1CCN(C(=O)[C@H]2CC2c2ccccc2)CC1)C1CCCC1 (stereo partly shown) [Example 82] | B (B=50-74%) | 
9 | Cc1ccc(SCC(=O)N2CCN(C(=O)[C@@H]3C[C@H]3c3ccccc3)CC2)cc1C (relative stereo) [Example 56, 2-((3,4-Dimethylphenyl)thio)-1-(4-(trans-2-phenylcyclopropanecarbonyl)piperazin-1-yl) ethanone] | B (B=50-74%) | 
10 | O=C(CSc1ccccc1F)N1CCN(C(=O)[C@@H]2C[C@H]2c2ccccc2)CC1 (relative stereo) [Example 58, 2-((2-Fluorophenyl)thio)-1-(4-(trans-2-phenylcyclopropane-1-carbonyl)piperazin-1-yl) ethan-1-one] | A (A=≥75%) | 
11 | O=C(O)CCCSCC(=O)N1CCN(C(=O)[C@@H]2C[C@H]2c2ccccc2)CC1 [Example 114] | D (D=0-24%) | 
12 | O=C(Cc1cccs1)N1CCN(C(=O)C2CC2c2ccc3c(c2)OCO3)CC1 (stereo not shown) [Example 24] | A (A=≥75%) | 
13 | O=C(CSc1ccccc1Cl)N1CCN(C(=O)[C@@H]2C[C@H]2c2ccccc2)CC1 (relative stereo) [Example 60, 2-((2-Chlorophenyl)thio)-1-(4-(trans-2-phenylcyclopropane-1-carbonyl)piperazin-1-yl) ethan-1-one] | B (B=50-74%) | 
14 | Cc1ccc(SCC(=O)N2CCN(C(=O)[C@@H]3C[C@H]3c3ccccc3)CC2)c(Cl)c1 (relative stereo) [Example 84, 2-((2-Chloro-4-methylphenyl)thio)-1-(4-(trans-2-phenylcyclo-propanecarbonyl)piperazin-1-yl) ethanone] | A (A=≥75%) | 
15 | NC(=O)c1ccccc1OCC(=O)N1CCN(C(=O)[C@@H]2C[C@H]2c2ccccc2)CC1 [Example 90] | B (B=50-74%) | 
16 | COc1cccc([C@H]2C[C@@H]2C(=O)N2CCN(C(=O)CSC3CCCC3)CC2)c1 [Example 27] | B (B=50-74%) | 
17 | N#Cc1cccc([C@H]2C[C@@H]2C(=O)N2CCN(C(=O)CSC3CCCC3)CC2)c1 [Example 31] | C (C=25-49%) | 
18 | O=C(O)c1cccc(OCC(=O)N2CCN(C(=O)[C@@H]3C[C@H]3c3ccccc3)CC2)c1 [Example 107] | D (D=0-24%) | 
19 | O=C(COc1cccc(O)c1)N1CCN(C(=O)[C@@H]2C[C@H]2c2ccccc2)CC1 [Example 96] | B (B=50-74%) | 
20 | O=C(COc1ccc(F)cc1)N1CCN(C(=O)[C@@H]2C[C@H]2c2ccccc2)CC1 [Example 108] | A (A=≥75%) | 
21 | COC(=O)c1ccccc1OCC(=O)N1CCN(C(=O)[C@@H]2C[C@H]2c2ccccc2)CC1 [Example 100] | C (C=25-49%) | 
22 | Cc1ccccc1SCC(=O)N1CCN(C(=O)[C@@H]2C[C@H]2c2ccccc2)CC1 (relative stereo) [Example 50, 1-(4-(Trans-2-phenylcyclopropanecarbonyl)piperazin-1-yl)-2-(o-tolylthio)ethanone] | C (C=25-49%) | 
23 | O=CNc1ccc(SCC(=O)N2CCN(C(=O)[C@@H]3C[C@H]3c3ccccc3)CC2)cc1 [Example 74] | B (B=50-74%) | 
24 | O=C(CSC1CCCC1)N1CCN(C(=O)[C@@H]2C[C@H]2c2ccccc2F)CC1 [Example 33] | B (B=50-74%) | 
25 | O=C(CSC1CCCC1)N1CCN(C(=O)[C@H]2C[C@@H]2c2ccc(O)cc2)CC1 [Example 30] | D (D=0-24%) | 
26 | O=C(CSc1ccc(Cl)cc1F)N1CCN(C(=O)[C@@H]2C[C@H]2c2ccccc2)CC1 (relative stereo) [Example 103, 2-((4-Chloro-2-fluorophenyl)thio)-1-(4-(trans-2-phenylcyclo-propane-1-carbonyl)piperazin-1-yl) ethan-1-one] | A (A=≥75%) | 

Row | SMILES | % Inh at 200 uM | EC50 (inhibition of IL-2 secretion, dose-response) [µM]
27 | O=C(CSC1CCCC1)N1CCN(C(=O)[C@H]2C[C@@H]2c2cccc(O)c2)CC1 [Example 29] | B (B=50-74%) | 
28 | O=C(COC1CCC1)N1CCN(C(=O)[C@@H]2C[C@H]2c2ccccc2)CC1 (racemic) [Example 39, 2-Cyclobutoxy-1-(4-(trans-2-phenylcyclopropanecarbonyl)piperazin-1-yl) ethanone] | B (B=50-74%) | 
29 | CCOc1ccccc1C(=O)N1CCN(C(=O)C2CC2c2ccc3c(c2)OCO3)CC1 (stereo not shown) [Example 17] | C (C=25-49%) | 
30 | O=C(CSC1CCCCC1)N1CCN(C(=O)[C@@H]2C[C@H]2c2ccccc2)CC1 [Example 41, 2-(Cyclohexylthio)-1-(4-((1R, 2R)-2-phenylcyclopropane-1-carbonyl)piperazin-1-yl) ethan-1-one] | B (B=50-74%) | 
31 | O=C(c1ccccc1F)N1CCN(C(=O)C2CC2c2ccc3c(c2)OCO3)CC1 (stereo not shown) [Example 22] | B (B=50-74%) | 
32 | O=C(CSc1ccccc1O)N1CCN(C(=O)[C@@H]2C[C@H]2c2ccccc2)CC1 [Example 88] | B (B=50-74%) | 
33 | O=C(CSc1ccc(O)cc1)N1CCN(C(=O)[C@@H]2C[C@H]2c2ccccc2)CC1 [Example 76] | C (C=25-49%) | 
34 | O=C(COc1ccc(O)cc1)N1CCN(C(=O)[C@@H]2C[C@H]2c2ccccc2)CC1 [Example 95] | C (C=25-49%) | 
35 | O=C(C[S+]([O-])C1CCCC1)N1CCN(C(=O)C2C[C@@H]2c2ccccc2)CC1 (stereo partly shown) [Example 80] | B (B=50-74%) | 
36 | O=C(COc1ccccc1O)N1CCN(C(=O)[C@@H]2C[C@H]2c2ccccc2)CC1 [Example 105] | B (B=50-74%) | 
37 | O=C(O)c1ccc(SCC(=O)N2CCN(C(=O)[C@@H]3C[C@H]3c3ccccc3)CC2)cc1 [Example 104] | B (B=50-74%) | 
38 | O=C(COc1ccccc1)N1CCN(C(=O)[C@@H]2C[C@H]2c2ccccc2)CC1 (relative stereo) [Example 48, 2-Phenoxy-1-(4-(trans-2-phenylcyclopropanecarbonyl)piperazin-1-yl) ethanone] | B (B=50-74%) | 
39 | COC(=O)c1cccc(OCC(=O)N2CCN(C(=O)[C@@H]3C[C@H]3c3ccccc3)CC2)c1 (relative stereo) [Example 109] | A (A=≥75%) | 50 to 100
40 | NC(=O)c1ccc(OCC(=O)N2CCN(C(=O)[C@@H]3C[C@H]3c3ccccc3)CC2)cc1 [Example 89] | C (C=25-49%) | 
41 | O=C(O)CCSCC(=O)N1CCN(C(=O)[C@@H]2C[C@H]2c2ccccc2)CC1 [Example 112] | D (D=0-24%) | 
42 | O=CNc1ccccc1OCC(=O)N1CCN(C(=O)[C@@H]2C[C@H]2c2ccccc2)CC1 [Example 93] | B (B=50-74%) | 
43 | O=C(CCS(=O)(=O)c1ccccc1)N1CCN(C(=O)C2CC2c2ccc3c(c2)OCO3)CC1 (stereo not shown) [Example 16] | A (A=≥75%) | 
44 | O=C(CSC1CCCC1)N1CCN(C(=O)[C@@H]2C[C@H]2c2ccc(F)cc2)CC1 [Example 68] | C (C=25-49%) | 
45 | Cc1cccc(SCC(=O)N2CCN(C(=O)[C@@H]3C[C@H]3c3ccccc3)CC2)c1 [Example 51] | A (A=≥75%) | 
46 | CC(C)OCC(=O)N1CCN(C(=O)[C@@H]2C[C@H]2c2ccccc2)CC1 (relative stereo) [Example 44, 2-Isopropoxy-1-(4-(trans-2-phenylcyclopropanecarbonyl)piperazin-1-yl) ethanone] | C (C=25-49%) | 
47 | Cc1ccc(SCC(=O)N2CCN(C(=O)[C@@H]3C[C@H]3c3ccccc3)CC2)cc1 [Example 53] | B (B=50-74%) | 
48 | O=CNc1cccc(OCC(=O)N2CCN(C(=O)[C@@H]3C[C@H]3c3ccccc3)CC2)c1 [Example 94] | C (C=25-49%) | 
49 | O=C(c1ccco1)N1CCN(C(=O)C2CC2c2ccc3c(c2)OCO3)CC1 (stereo not shown) [Example 7] | B (B=50-74%) | 
50 | O=C(O)CCNCC(=O)N1CCN(C(=O)[C@@H]2C[C@H]2c2ccccc2)CC1 [Example 111] | D (D=0-24%) | 
51 | COc1ccc(SCC(=O)N2CCN(C(=O)[C@@H]3C[C@H]3c3ccccc3)CC2)cc1 [Example 75] | B (B=50-74%) | 
